Test results reported in BindingDB's records for doi:10.1021/jm050680m (Johnson & Johnson Pharmaceutical Research and Development, 2005).

Columns and labels:
[1] = Antiproliferative activity against PDGF-BB stimulated HCASMC
[2] = as above; remark: listed apart in the source

Work on `COc1cc2c(cc1OC)-c1n[nH]c(Nc3cccc(Br)c3)c1C2` [3-bromo-N-(6,7-dimethoxy-2,4-dihydroindeno[1,2-c]pyrazol-3-yl)phenylamine] yielded an IC50 [1] of 32 nM.

Work on `COC(=O)c1cccc(Nc2[nH]nc3c2Cc2cc(OC)c(OC)cc2-3)c1` [3-carbomethoxy-N-(6,7-dimethoxy-2,4-dihydroindeno[1,2-c]pyrazol-3-yl)phenylamine] yielded an IC50 [2] of 11 nM.

For `COc1cc2c(cc1OC)-c1n[nH]c(Nc3cccc(C(F)(F)F)c3)c1C2` [3-trifluoromethyl-N-(6,7-dimethoxy-2,4-dihydroindeno[1,2-c]pyrazol-3-yl)phenylamine], the IC50 [2] was 1 nM.

With `COc1cccc2c1Cc1c-2n[nH]c1Nc1ccccc1` [(5-methoxy-2,4-dihydroindeno[1,2-c]pyrazol-3-yl)phenylamine] the IC50 [2] was 487 nM.

Compound `COc1cc2c(cc1OC)-c1n[nH]c(Nc3cccc(F)c3)c1C2` [JNJ-10198409] has an IC50 [2] of 3 nM.
